PMC11148080, “Ru(II)-based complexes containing 2-thiouracil derivatives suppress liver cancer stem cells by targeting NF-κB and Akt/mTOR signaling” (Cell Death Discovery, 2024)
Values joined by “and” are separate entries in the source; they are usually repeats but may differ in a detail not shown here. Equal entries are not always repeated.

Legend:
HepG2 cells [1] = test: Colony-forming assay; format: cell-based, human; settings: concentration- and time-dependent; 24, 48, 72 h treatment
Protocol: A total of 500 cells were plated in 6-well plates with 4 mL of complete medium and treated with the drugs for 24, 48, or 72 h to determine clonogenic potential. The medium was subsequently replaced with fresh drug-free medium, and the plates were cultivated for 14 days. After that, the cells were fixed in methanol and stained with 0.5% crystal violet. Using an optical microscope (Nikon, TS100), the number of colonies with >50 cells was counted.

HepG2 cells [2] = test: qPCR array gene expression; format: cell-based, human; parameters: key to RQ MTOR / RQ GSTP1 / RQ TXN / RQ TXNRD1 / RQ CTSS / RQ TOP2B / RQ NFKB1 / RQ HDAC1 / RQ AURKC / RQ NTN3 / RQ HDAC6 / RQ TNKS: RQ by 2^-ΔΔCT, fold vs 0.2% DMSO calibrator (=1); key to RQ BCL2 / RQ BIRC5 / RQ ERBB2 / RQ ERBB3 / RQ IGF1R / RQ CTSD / RQ ESR1 / RQ CDC25A / RQ HIF1A / RQ CDK9 / RQ MDM2 / RQ TP53 / RQ KRAS / RQ HDAC11 / RQ HDAC8: fold change by 2^-ΔΔCT vs 0.2% DMSO calibrator (=1); settings: 12 h; 8 µM complex 1, 6 µM complex 2
Protocol: Total RNA was extracted using the RNeasy Plus Mini Kit (Qiagen; Hilden, Germany) following the manufacturer’s instructions. A NanoDrop® 1000 spectrophotometer (Thermo Fisher Scientific, Waltham, Massachusetts, USA) was used to quantify and assess the purity of the RNA. Reverse transcription was performed using the Superscript VILOTM enzyme (Invitrogen Corporation; Waltham, MA, USA), and a TaqMan® array human cancer drug target 96-well plate, fast (ID RPRWENH, Applied BiosystemsTM, Foster City, CA, USA) was used for the gene expression study by qPCR (ABI ViiA7, Applied Biosystems instrument). The cycle conditions were 2 min at 50 °C, 10 min at 95 °C, and 40 cycles of 15 s at 95 °C and 1 min at 60 °C. All the experiments were conducted under DNase/RNase-free conditions. The 2^-ΔΔCT method was used to calculate the relative quantification (RQ) of mRNA expression using Gene Expression SuiteTM Software (Applied BiosystemsTM). Cells treated with the negative control (0.2% DMSO) were used as a calibrator, and the RQs of the reference genes GAPDH, UBC and RPLP0 were used to normalize the responses.

In the case of `F[P-](F)(F)(F)(F)F.O=c1cc[nH]c([S][Ru+])n1.c1ccc(-c2ccccn2)nc1.c1ccc(P(c2ccccc2)c2ccccc2)cc1.c1ccc(P(c2ccccc2)c2ccccc2)cc1` [Complex 1, trans-[Ru(2TU)(PPh3)2(bipy)]PF6], the “clonogenic viability of HepG2 cells” value (HepG2 cells [1]) is reported as “significantly decreased”, the “RQ ABCC1” value (HepG2 cells [2]) is reported as 2.226 and the “RQ AKT1” value (HepG2 cells [2]) is reported as 0.775. The “RQ AKT2” value (HepG2 cells [2]) was 0.889, the “RQ ATF2” value (HepG2 cells [2]) was 1.702 and the “RQ AURKA” value (HepG2 cells [2]) was 0.691. The “RQ AURKB” value (HepG2 cells [2]) was 0.759, the “RQ AURKC” value (HepG2 cells [2]) was 1.565 and the “RQ BCL2” value (HepG2 cells [2]) was 1.602. For the same compound, the “RQ BIRC5” value (HepG2 cells [2]) was 0.800, the “RQ CDC25A” value (HepG2 cells [2]) was 2.454 and the “RQ CDK1” value (HepG2 cells [2]) was 0.664. For the same compound, the “RQ CDK2” value (HepG2 cells [2]) was 0.777, the “RQ CDK4” value (HepG2 cells [2]) was 1.130 and the “RQ CDK5” value (HepG2 cells [2]) was 0.572. The “RQ CDK7” value (HepG2 cells [2]) was 2.521, the “RQ CDK8” value (HepG2 cells [2]) was 2.592 and the “RQ CDK9” value (HepG2 cells [2]) was 0.937. The “RQ CTSB” value (HepG2 cells [2]) was 0.797, the “RQ CTSD” value (HepG2 cells [2]) was 1.503 and the “RQ CTSL” value (HepG2 cells [2]) was 1.271. For the same compound, the “RQ CTSS” value (HepG2 cells [2]) was 1.314, the “RQ EGFR” value (HepG2 cells [2]) was 1.217 and the “RQ ERBB2” value (HepG2 cells [2]) was 0.682. For the same compound, the “RQ ERBB3” value (HepG2 cells [2]) was 0.915, the “RQ ESR1” value (HepG2 cells [2]) was 0.564 and the “RQ ESR2” value (HepG2 cells [2]) was 2.165. For the same compound, the “RQ GRB2” value (HepG2 cells [2]) was 1.501, the “RQ GSTP1” value (HepG2 cells [2]) was 0.499 and 0.49 and the “RQ HDAC1” value (HepG2 cells [2]) was 0.833. For the same compound, the “RQ HDAC2” value (HepG2 cells [2]) was 1.190, the “RQ HDAC3” value (HepG2 cells [2]) was 0.989 and the “RQ HDAC4” value (HepG2 cells [2]) was 0.764. The “RQ HDAC6” value (HepG2 cells [2]) was 0.564, the “RQ HDAC7” value (HepG2 cells [2]) was 1.008 and the “RQ HDAC8” value (HepG2 cells [2]) was 0.970. For the same compound, the “RQ HDAC11” value (HepG2 cells [2]) was 1.729, the “RQ HIF1A” value (HepG2 cells [2]) was 3.170 and the “RQ HRAS” value (HepG2 cells [2]) was 0.753. For the same compound, the “RQ HSP90AA1” value (HepG2 cells [2]) was 2.760, the “RQ HSP90B1” value (HepG2 cells [2]) was 3.676 and the “RQ IGF1R” value (HepG2 cells [2]) was 0.916. The “RQ KRAS” value (HepG2 cells [2]) was 1.809, the “RQ MDM2” value (HepG2 cells [2]) was 1.685 and the “RQ MDM4” value (HepG2 cells [2]) was 2.263. The “RQ MTOR” value (HepG2 cells [2]) was 0.395 and 0.39, the “RQ NFKB1” value (HepG2 cells [2]) was 0.451 and 0.45 and the “RQ NRAS” value (HepG2 cells [2]) was 0.908. The “RQ NTN3” value (HepG2 cells [2]) was 5.849, the “RQ PARP1” value (HepG2 cells [2]) was 0.638 and the “RQ PARP4” value (HepG2 cells [2]) was 0.801. For the same compound, the “RQ PDGFRB” value (HepG2 cells [2]) was 0.964, the “RQ PGR” value (HepG2 cells [2]) was 8.929 and the “RQ PIK3C2A” value (HepG2 cells [2]) was 0.855. The “RQ PIK3C3” value (HepG2 cells [2]) was 1.001, the “RQ PIK3CA” value (HepG2 cells [2]) was 0.817 and the “RQ PLK1” value (HepG2 cells [2]) was 0.520. The “RQ PLK2” value (HepG2 cells [2]) was 1.630, the “RQ PLK3” value (HepG2 cells [2]) was 2.378 and the “RQ PLK4” value (HepG2 cells [2]) was 0.743. The “RQ PRKCA” value (HepG2 cells [2]) was 1.667, the “RQ PRKCB” value (HepG2 cells [2]) was 0.327 and the “RQ PRKCD” value (HepG2 cells [2]) was 0.661. For the same compound, the “RQ PRKCE” value (HepG2 cells [2]) was 2.615, the “RQ PTGS2” value (HepG2 cells [2]) was 7.499 and the “RQ RHOA” value (HepG2 cells [2]) was 0.642. The “RQ RHOB” value (HepG2 cells [2]) was 0.437, the “RQ TERT” value (HepG2 cells [2]) was 0.604 and the “RQ TNKS” value (HepG2 cells [2]) was 3.189. For the same compound, the “RQ TOP2A” value (HepG2 cells [2]) was 0.469, the “RQ TOP2B” value (HepG2 cells [2]) was 0.499 and the “RQ TP53” value (HepG2 cells [2]) was 1.021. The “RQ TXN” value (HepG2 cells [2]) was 0.546 and the “RQ TXNRD1” value (HepG2 cells [2]) was 1.341.
For `Cc1cc(=O)nc([S][Ru+])[nH]1.F[P-](F)(F)(F)(F)F.c1ccc(-c2ccccn2)nc1.c1ccc(P(c2ccccc2)c2ccccc2)cc1.c1ccc(P(c2ccccc2)c2ccccc2)cc1` [Complex 2, trans-[Ru(6m2TU)(PPh3)2(bipy)]PF6], the “clonogenic viability of HepG2 cells” value (HepG2 cells [1]) was “significantly decreased”, the “RQ ABCC1” value (HepG2 cells [2]) was 1.941 and the “RQ AKT1” value (HepG2 cells [2]) was 1.087. For the same compound, the “RQ AKT2” value (HepG2 cells [2]) was 1.490, the “RQ ATF2” value (HepG2 cells [2]) was 2.672 and the “RQ AURKA” value (HepG2 cells [2]) was 1.172. For the same compound, the “RQ AURKB” value (HepG2 cells [2]) was 1.242, the “RQ AURKC” value (HepG2 cells [2]) was 2.011 and the “RQ BCL2” value (HepG2 cells [2]) was 1.249. For the same compound, the “RQ BIRC5” value (HepG2 cells [2]) was 1.033, the “RQ CDC25A” value (HepG2 cells [2]) was 6.141 and the “RQ CDK1” value (HepG2 cells [2]) was 0.752. The “RQ CDK2” value (HepG2 cells [2]) was 1.120, the “RQ CDK4” value (HepG2 cells [2]) was 1.730 and the “RQ CDK5” value (HepG2 cells [2]) was 1.104. The “RQ CDK7” value (HepG2 cells [2]) was 2.039, the “RQ CDK8” value (HepG2 cells [2]) was 3.664 and the “RQ CDK9” value (HepG2 cells [2]) was 1.146. The “RQ CTSB” value (HepG2 cells [2]) was 0.972, the “RQ CTSD” value (HepG2 cells [2]) was 1.586 and the “RQ CTSL” value (HepG2 cells [2]) was 0.950. The “RQ CTSS” value (HepG2 cells [2]) was 0.866, the “RQ EGFR” value (HepG2 cells [2]) was 1.856 and the “RQ ERBB2” value (HepG2 cells [2]) was 1.118. The “RQ ERBB3” value (HepG2 cells [2]) was 1.280, the “RQ ESR1” value (HepG2 cells [2]) was 0.968 and the “RQ ESR2” value (HepG2 cells [2]) was 2.732. For the same compound, the “RQ GRB2” value (HepG2 cells [2]) was 2.255, the “RQ GSTP1” value (HepG2 cells [2]) was 0.276 and 0.27 and the “RQ HDAC1” value (HepG2 cells [2]) was 16.128. The “RQ HDAC2” value (HepG2 cells [2]) was 2.118, the “RQ HDAC3” value (HepG2 cells [2]) was 3.639 and the “RQ HDAC4” value (HepG2 cells [2]) was 0.456. The “RQ HDAC6” value (HepG2 cells [2]) was 1.088, the “RQ HDAC7” value (HepG2 cells [2]) was 2.228 and the “RQ HDAC8” value (HepG2 cells [2]) was 1.517. The “RQ HDAC11” value (HepG2 cells [2]) was 3.379, the “RQ HIF1A” value (HepG2 cells [2]) was 3.509 and the “RQ HRAS” value (HepG2 cells [2]) was 0.785. For the same compound, the “RQ HSP90AA1” value (HepG2 cells [2]) was 3.278, the “RQ HSP90B1” value (HepG2 cells [2]) was 2.205 and the “RQ IGF1R” value (HepG2 cells [2]) was 1.357. The “RQ KRAS” value (HepG2 cells [2]) was 1.185, the “RQ MDM2” value (HepG2 cells [2]) was 0.982 and the “RQ MDM4” value (HepG2 cells [2]) was 2.736. For the same compound, the “RQ MTOR” value (HepG2 cells [2]) was 1.092, the “RQ NFKB1” value (HepG2 cells [2]) was 0.760 and the “RQ NRAS” value (HepG2 cells [2]) was 0.469. The “RQ NTN3” value (HepG2 cells [2]) was 0.712, the “RQ PARP1” value (HepG2 cells [2]) was 1.065 and the “RQ PARP4” value (HepG2 cells [2]) was 2.503. The “RQ PDGFRB” value (HepG2 cells [2]) was 1.004, the “RQ PGR” value (HepG2 cells [2]) was 30.650 and the “RQ PIK3C2A” value (HepG2 cells [2]) was 0.839. For the same compound, the “RQ PIK3C3” value (HepG2 cells [2]) was 0.840, the “RQ PIK3CA” value (HepG2 cells [2]) was 0.441 and 0.44 and the “RQ PLK1” value (HepG2 cells [2]) was 0.509. The “RQ PLK2” value (HepG2 cells [2]) was 5.868, the “RQ PLK3” value (HepG2 cells [2]) was 2.039 and the “RQ PLK4” value (HepG2 cells [2]) was 0.844. The “RQ PRKCA” value (HepG2 cells [2]) was 1.337, the “RQ PRKCB” value (HepG2 cells [2]) was 0.506 and the “RQ PRKCD” value (HepG2 cells [2]) was 0.340. For the same compound, the “RQ PRKCE” value (HepG2 cells [2]) was 1.636, the “RQ PTGS2” value (HepG2 cells [2]) was 15.420 and the “RQ RHOA” value (HepG2 cells [2]) was 0.628. For the same compound, the “RQ RHOB” value (HepG2 cells [2]) was 0.406, the “RQ TERT” value (HepG2 cells [2]) was 1.051 and the “RQ TNKS” value (HepG2 cells [2]) was 2.369. For the same compound, the “RQ TOP2A” value (HepG2 cells [2]) was 0.423, the “RQ TOP2B” value (HepG2 cells [2]) was 0.235 and the “RQ TP53” value (HepG2 cells [2]) was 1.658. The “RQ TXN” value (HepG2 cells [2]) was 0.375 and 0.37 and the “RQ TXNRD1” value (HepG2 cells [2]) was 0.35.
